Data from article PMC10487658, “Identification and Characterization of RK22, a Novel Antimicrobial Peptide from Hirudinaria manillensis against Methicillin Resistant Staphylococcus aureus” (International Journal of Molecular Sciences, 2023).
No end group written: not given here.

How the values were obtained:
E. coli, ATCC25922 = format: cell-based, Escherichia coli; conditions: E. coli ATCC25922; RPMI 1640, 37 °C, 12–16 h, absorbance at 600 nm
MRSA-Z = format: in vitro ADME, Staphylococcus aureus
Protocol: (§1) We determined the stability of RK22 in plasma according to the previously reported method. Briefly, an equal volume of RK22 was mixed with human plasma and diluted to a concentration of 5 mg/mL. The MICs of RK22 against S. aureus ATCC6538 and methicillin-resistant S. aureus MRSA-Z were determined after incubation at 37 °C for different times (0, 2, 4, 6, 8, and 10 h).

S. aureus (ATCC6538) [1] = format: in vitro ADME, Staphylococcus aureus
Protocol: as §1

[2] = system: MRSA-Z (clinically isolated methicillin-resistant S. aureus); experiment: microbe, parasite or virus in culture; format: cell-based, Staphylococcus aureus; conditions: -Z (clinically isolated methicillin-resistant)
Protocol: (§2) The bacterial strains used in this study included Pseudomonas aeruginosa (P. aeruginosa, ATCC27853), Acinetobacter baumannii (A. baumannii, ATCC19606), Escherichia coli (E. coli, ATCC8739), and S. aureus (ATCC6538, two clinically isolated strains (SA220823 and SA15772)), and three clinically isolated methicillin-resistant strains (MRSA-Z, MRSA11, and MRSA22). All strains were grown in Luria-Bertani (LB) broth.
(§3) The minimum inhibitory concentration (MIC) for all strains was determined using the […] assay based on a previous study with minor modifications. Initially, strains in the exponential phase were diluted to a concentration of 2 × 10^5 CFU/mL using RPMI 1640 medium (Corning, New York, NY, USA). Next, 100 μL of the bacterial suspension was mixed with 100 μL of the sample solution (final concentration 0–200 μg/mL in RPMI 1640 medium) in 96-well plates. The plates were then incubated at 37 °C for 12–16 h. After incubation, the absorbance at 600 nm was measured, and the MIC was determined as the lowest concentration of the test sample in which no bacterial growth was detected in the well.

[3] = system: SA220823 (clinically isolated S. aureus); experiment: microbe, parasite or virus in culture; format: cell-based, Staphylococcus aureus; conditions: SA220823 (clinically isolated)
Protocol: as §2, §3

[4] = system: MRSA22 (clinically isolated methicillin-resistant S. aureus); experiment: microbe, parasite or virus in culture; format: cell-based, Staphylococcus aureus; conditions: MRSA22 (clinically isolated methicillin-resistant)
Protocol: as §2, §3

[5] = system: MRSA11 (clinically isolated methicillin-resistant S. aureus); experiment: microbe, parasite or virus in culture; format: cell-based, Staphylococcus aureus; conditions: MRSA11 (clinically isolated methicillin-resistant)
Protocol: as §2, §3

S. aureus (ATCC6538) [6] = experiment: microbe, parasite or virus in culture; format: cell-based, Staphylococcus aureus
Protocol: as §2, §3

[7] = system: SA15772 (clinically isolated S. aureus); experiment: microbe, parasite or virus in culture; format: cell-based, Staphylococcus aureus; conditions: SA15772 (clinically isolated)
Protocol: as §2, §3

P. aeruginosa, ATCC9027 = format: cell-based, Pseudomonas aeruginosa; conditions: P. aeruginosa ATCC9027 in Table 3; RPMI 1640, 37 °C, 12–16 h, absorbance at 600 nm

Sequence: RKYKEKKDKSQNKKKKRKCMIL [RK22]
- MIC (E. coli, ATCC25922): 25 µg/mL
- MIC after incubation in plasma (MRSA-Z): 6.25 µg/mL
- MIC after incubation in plasma (S. aureus (ATCC6538) [1]): 6.25 µg/mL
- MIC [2]: 6.25 µg/mL
- MIC [3]: 12.5 µg/mL
- MIC [4]: 6.25 µg/mL
- MIC [5]: 6.25 µg/mL
- MIC (S. aureus (ATCC6538) [6]): 6.25 µg/mL
- MIC [7]: 12.5 µg/mL
- MIC (P. aeruginosa, ATCC9027): >100 µg/mL
